Test results as given in patent US8168199B2, “Dipeptidyl peptidase IV inhibitors for the treatment of schizophrenia and depression” (priority 2000, dated 2012).

Tested on: Male WistarF/Han (WF) rats
Test: Elevated plus maze (EPM) testing, i.c.v. P32/98
Format: in vivo, rat
Protocol: Animals. […]
Elevated plus maze (EPM) testing. […] The following parameters were calculated: Total numbers of arm entries (TA); entries to closed arms (CA); entries to open arms (OA); percentage frequency of entries to open arms (% OA: OA×100/TA); total trial duration (TT): 300 s; duration of stay in closed arms (closed time; CLT); percentage share of CLT in total arms-stay duration (CLT×100/AT); duration of stay in open arms (open time; OT) and percentage share of OT in total arm-stay duration (% OT: OT×100/AT). In addition to the standard spatiotemporal measurements, “time spent and percentage of time on the central square” were recorded (center time, CT: duration of stay on platform in seconds; percentage share of CT in trial duration, % CT: CT×100/TT). […]

SMILES: CC[C@H](C)[C@H](N)C(=O)N1CCSC1 [P32/98]
- effect of treatment on percentage of time spent on the open arms (analysis of variance) (i.c.v. aCSF, 0.05, 5, 500 nmol): significant effect
- percentage of time spent on the open arms of the EPM (i.c.v. low dose 50 pmol, 60 min before test, vs aCSF): increased
